Source: paper PMC8242589, “Cardiac Safety of Kinase Inhibitors – Improving Understanding and Prediction of Liabilities in Drug Discovery Using Human Stem Cell-Derived Models” (Frontiers in Cardiovascular Medicine, 2021)
Where “and” joins values, the source holds several entries; their conditions need not be identical. Equal values may be shown once. Read-outs that look alike come from different tables or passages of the source. Values belong to the compound of their own block, whether it stands above or below them.

Key:
[1] = system: hSC-CMs (Cor.4U Cardiomyocytes); experiment: CardioExcyte 96 impedance and EFP recording (beating rate, base impedance); type: cell-based, human; details: for BR / Base Imp / activity at 0.03 µM / activity at 0.3 µM / activity at 3 µM / activity at 30 µM: vs baseline before drug (taken as 100%); for activity at 0.03 µM / activity at 0.3 µM / activity at 3 µM / activity at 30 µM: Homo sapiens, Cardiomyocyte
Procedure: Cor.4U® Cardiomyocytes (Ncardia, Netherlands) were cultured in 96-well plates at density of 25,000 – 30,000 cells per well. Cells were maintained at 5% CO2 and 37 °C for 4 days prior to experiments.
Functional monitoring of cardiomyocytes was done using CardioExcyte® 96 (Nanion technologies GmbH, Germany). Extracellular field potential (EFP) and impedance signals were recorded from hSC-CMs that formed monolayers in the wells of the NSP-96 plate. Beating Rate (BR, per minute) was calculated as the reciprocal of the inter-spike interval (ISI) in EFP signal. Impedance signals from spontaneously beating hSC-CMs were recorded with a sampling rate of 1 ms (1 kHz), and EFP data were collected at 0.1ms (10 kHz). Data acquisition was controlled by CardioExcyte® 96 Control software as previously described ([22]). The functional parameters recorded in each concentration of test items were compared to the base line values before drug addition (taken as 100%) to define fractional change.

[2] = system: hSC-CMs (Cor.4U Cardiomyocytes); experiment: ATP assay (CellTiter-Glo Luminescent Cell Viability Assay); type: cell-based, human; details: for ATP: normalized to time-matched DMSO control
Procedure: Cor.4U® Cardiomyocytes (Ncardia, Netherlands) were cultured in 96-well plates at density of 25,000 – 30,000 cells per well. Cells were maintained at 5% CO2 and 37 °C for 4 days prior to experiments. The cell culture medium (Cor4U® Complete Culture Medium, cat# Ax-M-HC250E, Axiogenesis AG, Cologne, Germany) was changed every 24 h and was replaced by serum-free BMCC medium (cat# Ax-M-BMCC259, Axiogenesis AG, Cologne, Germany) 12 h prior to drug addition.
The CellTiter-Glo Luminescent Cell Viability Assay (cat# G7572, Promega, USA) was performed for quantification of the cellular ATP concentration according to manufacturer's instructions. Plates were shaken for 2 min in the dark, incubated at ambient temperature for 10 min before measuring luminescence (Integration time 0.1 seconds per well) with Luminescence Counter (Synergy H1, BioTek Instruments, Inc., Winooski, Vermont). The measured ATP concentration values were normalized to the time-matched DMSO controls. Data are representative of at least three replicates per concentration.

PI3K p110β = details: ref [23]–[25] (NVP-BEZ235), [27] (LY 294002), [28] (GDC-0941), [32] (TGX-221), [33] (CAL-101), [35] (CZC24832); read-out: Target IC50 p110β; cited from earlier work
[3] = system: hSC-CMs (Cor.4U Cardiomyocytes); experiment: Apoptosis assay (CellEvent Caspase-3/7 Green, IncuCyte ZOOM kinetics over 24 h); type: cell-based, human; parameters: key to Caspase / Caspase MEAN: % of time-matched vehicle control (green object area); details: for Caspase / activity at 0.03 µM / activity at 0.3 µM / activity at 3 µM / activity at 30 µM: normalized to time-matched vehicle control; for Caspase MEAN: DMSO = 100; for activity at 0.03 µM / activity at 0.3 µM / activity at 3 µM / activity at 30 µM: Homo sapiens, Cardiomyocyte
Procedure: Cor.4U® Cardiomyocytes ([…], Netherlands) were cultured in 96-well plates at density of 25,000 - 30,000 cells per well. Cells were maintained at 5% CO2 and 37 °C for 4 days prior to experiments. […] The plates were incubated 2 h before compound treatment in the IncuCyte ZOOM (ESSEN BioScience, Ann Arbor, Michigan) to set a baseline before the 24 h compound treatment. […] Imaging was done using 10x microscope objective of the IncuCyteZOOM with four images per well-taken every 2 h in both phase-contrast and green fluorescence. The fluorescent nuclear signal of the apoptotic cells was separated from background with the integrated object counting algorithm, adjusted to cardiomyocytes, and the calculated total green object area per well (μm^2/well) plotted against time. Data were normalized to those of the time-matched vehicle control. Data were representative of at least three replicates per concentration.

- Effect on hSC-CMs function (base impedance and beating rate), in words [1]: did not have any effect
Compound: Cc1cc(C(C)Nc2ccccc2)c2nc(N3CCOCC3)cc(=O)n2c1 (centres unmarked) [TGX-221]
- BR ([1]; 0.1 µM, 2h): 98
- Base Imp ([1]; 0.1 µM, 2h): 107
- BR ([1]; 0.1 µM, 24h): 94
- Base Imp ([1]; 0.1 µM, 24h): 106
- BR ([1]; 0.3 µM, 2h): 93
- Base Imp ([1]; 0.3 µM, 2h): 104
- BR ([1]; 0.3 µM, 24h): 91
- Base Imp ([1]; 0.3 µM, 24h): 100
- BR ([1]; 1 µM, 2h): 94
- Base Imp ([1]; 1 µM, 2h): 98
- BR ([1]; 1 µM, 24h): 95
- Base Imp ([1]; 1 µM, 24h): 97
- BR ([1]; 3 µM, 2h): 95
- Base Imp ([1]; 3 µM, 2h): 97
- BR ([1]; 3 µM, 24h): 89
- Base Imp ([1]; 3 µM, 24h): 98
- Change in the hSC-CMs parameters (surface plots: beating rate, base impedance, ATP) ([1]; hSC-CMs, 2 and 24 h): below 20%
- ATP ([2]; 0.1 µM, 2h): 105
- ATP ([2]; 0.1 µM, 24h): 95
- ATP ([2]; 0.3 µM, 2h): 100
- ATP ([2]; 0.3 µM, 24h): 96
- ATP ([2]; 1 µM, 2h): 97
- ATP ([2]; 1 µM, 24h): 97
- ATP ([2]; 3 µM, 2h): 104
- ATP ([2]; 3 µM, 24h): 104
- Effect on ATP level, in words ([2]; hSC-CMs, up to the highest test concentrations): did not have any effect
- IC50 (PI3K p110β): 5 nM
- Apoptosis (caspase-3/7 activation), result in words [3]: no effect
- Caspase ([3]; 0.1 µM, 2h): 104
- Caspase ([3]; 0.1 µM, 24h): 87
- Caspase ([3]; 0.3 µM, 2h): 112
- Caspase ([3]; 0.3 µM, 24h): 95
- Caspase ([3]; 1 µM, 2h): 87
- Caspase ([3]; 1 µM, 24h): 92 and 92.1743
- Caspase ([3]; 3 µM, 2h): 124
- Caspase ([3]; 3 µM, 24h): 111 and 110.619

Compound: CCOC(=O)c1cnc2ccc(-c3cncc(NS(=O)(=O)c4ccccc4)c3)cn12 [HS-173]
- BR ([1]; 0.03 µM, 2h): 105
- Base Imp ([1]; 0.03 µM, 2h): 87
- BR ([1]; 0.03 µM, 24h): 97
- Base Imp ([1]; 0.03 µM, 24h): 87
- BR ([1]; 0.1 µM, 2h): 93
- Base Imp ([1]; 0.1 µM, 2h): 83
- BR ([1]; 0.1 µM, 24h): 89
- Base Imp ([1]; 0.1 µM, 24h): 85
- BR ([1]; 0.3 µM, 2h): 85
- Base Imp ([1]; 0.3 µM, 2h): 81
- BR ([1]; 0.3 µM, 24h): 84
- Base Imp ([1]; 0.3 µM, 24h): 72
- BR ([1]; 1 µM, 2h): 86
- Base Imp ([1]; 1 µM, 2h): 69
- BR ([1]; 1 µM, 24h): 75
- Base Imp ([1]; 1 µM, 24h): 67
- Reduction of base impedance ([1]; hSC-CMs, 2 and 24 h): more than 20%
- Reduction of beating rate ([1]; hSC-CMs, 2 and 24 h): more than 20%
- ATP ([2]; 0.03 µM, 2h): 89
- ATP ([2]; 0.03 µM, 24h): 98
- ATP ([2]; 0.1 µM, 2h): 87
- ATP ([2]; 0.1 µM, 24h): 99
- ATP ([2]; 0.3 µM, 2h): 86
- ATP ([2]; 0.3 µM, 24h): 90
- ATP ([2]; 1 µM, 2h): 86
- ATP ([2]; 1 µM, 24h): 83
- Decrease of ATP level ([2]; hSC-CMs, after 24 h of incubation): 20–25%
- Apoptosis (caspase-3/7 activation), result in words [3]: induced apoptosis in hSC-CMs with a fast onset
- Caspase ([3]; 0.03 µM, 2h): 167
- Caspase ([3]; 0.03 µM, 24h): 80
- Caspase ([3]; 0.1 µM, 2h): 138
- Caspase ([3]; 0.1 µM, 24h): 151
- Caspase ([3]; 0.3 µM, 2h): 123
- Caspase ([3]; 0.3 µM, 24h): 200
- Caspase ([3]; 1 µM, 2h): 120
- Caspase ([3]; 1 µM, 24h): 373
- Time to reach the maximum number of apoptotic cells ([3]; hSC-CMs, monitored over 24 h): ≤ 12 h

Compound: CN[C@@H]1C[C@H]2O[C@@](C)([C@@H]1OC)n1c3ccccc3c3c4c(c5c6ccccc6n2c5c31)C(=O)NC4 [Staurosporine]
- Caspase MEAN ([3]; 1 µM, Time 2.75): 85
- Caspase MEAN ([3]; 1 µM, Time 4.75): 254
- Caspase MEAN ([3]; 1 µM, Time 6.75): 1532
- Caspase MEAN ([3]; 1 µM, Time 8.75): 3137
- Caspase MEAN ([3]; 1 µM, Time 10.75): 4841
- Caspase MEAN ([3]; 1 µM, Time 12.75): 5989
- Caspase MEAN ([3]; 1 µM, Time 14.75): 7301
- Caspase MEAN ([3]; 1 µM, Time 16.75): 7458
- Caspase MEAN ([3]; 1 µM, Time 18.75): 8506
- Caspase MEAN ([3]; 1 µM, Time 20.75): 7604
- Caspase MEAN ([3]; 1 µM, Time 22.75): 7381
- Caspase MEAN ([3]; 1 µM, Time 24.75): 7608
- Caspase MEAN ([3]; 1 µM, Time 26.75): 7240

- Effect on cardiomyocyte function in 3D surface plots (beating rate, base impedance, ATP), in words ([1]; hSC-CMs, 2 and 24 h): pronounced effects
Compound: Cn1c(=O)n(-c2ccc(C(C)(C)C#N)cc2)c2c3cc(-c4cnc5ccccc5c4)ccc3ncc21 [NVP-BEZ235, Dactolisib]
- activity at 0.03 µM ([1]; 0.03 µM, 2h, read-out: BR): 99%
- activity at 0.03 µM ([1]; 0.03 µM, 2h, read-out: Base Imp): 88%
- activity at 0.03 µM ([1]; 0.03 µM, 24h, read-out: BR): 90%
- activity at 0.03 µM ([1]; 0.03 µM, 24h, read-out: Base Imp): 85%
- activity at 0.3 µM ([1]; 0.3 µM, 2h, read-out: BR): 73%
- activity at 0.3 µM ([1]; 0.3 µM, 2h, read-out: Base Imp): 86%
- activity at 0.3 µM ([1]; 0.3 µM, 24h, read-out: BR): 57%
- activity at 0.3 µM ([1]; 0.3 µM, 24h, read-out: Base Imp): 75%
- activity at 3 µM ([1]; 3 µM, 2h, read-out: BR): 39%
- activity at 3 µM ([1]; 3 µM, 2h, read-out: Base Imp): 71%
- activity at 3 µM ([1]; 3 µM, 24h, read-out: BR): 14%
- activity at 3 µM ([1]; 3 µM, 24h, read-out: Base Imp): 52%
- activity at 30 µM ([1]; 2h, read-out: BR): 19%
- activity at 30 µM ([1]; 2h, read-out: Base Imp): 51%
- activity at 30 µM ([1]; 24h, read-out: BR): 30%
- activity at 30 µM ([1]; 24h, read-out: Base Imp): 45%
- Reduction of base impedance ([1]; hSC-CMs, 2 and 24 h): more than 20%
- Reduction of beating rate ([1]; hSC-CMs, 2 and 24 h): more than 20%
- activity at 0.03 µM ([3]; 0.03 µM, 2h): 242%
- activity at 0.03 µM ([3]; 0.03 µM, 24h): 188%
- activity at 0.3 µM ([3]; 0.3 µM, 2h): 148%
- activity at 0.3 µM ([3]; 0.3 µM, 24h): 320%
- activity at 3 µM ([3]; 3 µM, 2h): 72%
- activity at 3 µM ([3]; 3 µM, 24h): 228%
- activity at 30 µM ([3]; 2h): 86%
- activity at 30 µM ([3]; 24h): 355%
- Apoptosis (caspase-3/7 activation), result in words ([3]; hSC-CMs, monitored over 24 h): induced apoptosis in hSC-CMs with a fast onset
- Time to reach the maximum number of apoptotic cells ([3]; hSC-CMs, monitored over 24 h): ≤ 12 h
